Experimental data: patent US9095578B2, “Adenylyl cyclases as novel targets for the treatment of infection by eukaryotic pathogens” (CORNELL RESEARCH FOUNDATION, INC., priority 2007, dated 2015)
Each block holds one compound with its values, some of them ahead of it.

Assays:
[1] = test system: adenylyl cyclase activity from Trypansoma brucei cell lysates; assay: adenylyl cyclase assay on whole cell lysate of the bloodstream form; assay type: biochemical, Trypanosoma brucei; settings: 15 mM MgCl2, 1 mM ATP, pH 7.5, 30° C.; for effect on adenylyl cyclase activity in whole cell lysate: any concentration
Procedure: The effect of these compounds on lysate activity was tested using whole cell lysate of the bloodstream form. Briefly, 5×10^6 cells were sonicated (on ice) in a lysis buffer consisting of 2 mM Tris-HCl, 15 mM KCl, 1 mM EDTA, 1 mM 2-mercaptoethanol, 100 μM PMSF, and 1 μg/mL aprotinin/leupeptin. Adenylyl cyclase assays were conducted using 20 μL of lysate/assay in the presence of 15 mM MgCl2 and 1 mM ATP in 50 mM Tris-HCl at pH=7.5 at 30° C. KH7.14 and KH7.15 had no effect on activity at any concentration while 100 μM KH7 stimulated AC activity in the whole cell lysate between 1.5-2 fold (see FIG. 2). The observation that KH7 prevents growth of bloodstream form cells in vitro via activation of adenylyl cyclase is consistent with the idea that the cAMP pathway controls the cell cycle.

[2] = target: T1, human sAC (Homo sapiens, UniProt Q96PN6); assay: in vivo cAMP accumulation assay, 4-4 cells (hsACt stably transfected into 293T) + IBMX; assay type: cell-based; settings: 4-4, Basal column
T1 construct: made in house
T1 sequence (Q96PN6 1-469 limits assumed): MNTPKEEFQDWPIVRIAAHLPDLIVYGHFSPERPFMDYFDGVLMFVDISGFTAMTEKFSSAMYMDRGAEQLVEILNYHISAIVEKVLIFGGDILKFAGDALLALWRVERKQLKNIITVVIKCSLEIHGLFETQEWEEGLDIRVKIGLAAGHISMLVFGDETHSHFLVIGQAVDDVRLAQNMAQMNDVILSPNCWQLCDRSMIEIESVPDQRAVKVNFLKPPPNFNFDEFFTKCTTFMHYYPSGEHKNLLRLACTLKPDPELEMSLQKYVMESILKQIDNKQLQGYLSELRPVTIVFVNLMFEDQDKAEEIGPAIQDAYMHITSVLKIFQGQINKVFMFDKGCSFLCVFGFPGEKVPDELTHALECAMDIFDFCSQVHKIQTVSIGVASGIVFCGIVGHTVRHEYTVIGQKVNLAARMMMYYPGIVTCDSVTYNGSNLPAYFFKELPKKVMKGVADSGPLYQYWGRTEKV
Procedure: 293T cells or 4-4 […] stably transfected into 293T) were grown in 75 cm2 Tissue Culture Flasks until nearly confluent using DMEM (10% FBS, 1% L-Glutamine, 1% Penicillin/Streptomycin). Cells were released from the flask with 3 ml of trypsin followed by addition of 7 ml of DMEM to neutralize the trypsin. Cells were mixed by pipetting up and down with 10 ml serological pipette. To a 3 ml aliquot of the cell mixture, 6 ml of DMEM (prewarmed to 37° C.) was added followed by thorough mixing by picking up the entire 9 mls using a repeat pipettor, and slowly pipetting out against the wall of container. This was repeated this ten times to ensure the mixture in homogenous. 100 μL of cells were then added to each pre-siliconized 1.7 ml Eppindorf tubes (Costar #3207) followed by a 60 min incubation at 37° C. and 5% CO2. This incubation was performed in 20-tube, round, floating racks (VWR #60986-100), which enable a quick transfer of the samples to a water bath, and the ability to mix several samples simultaneously. Following the incubation, 1 μL of the compound in DMSO was added (or just DMSO for controls). The cells were mixed before and after adding the compound, by a brief (and light) vortexing. The compounds were added while the cells were in the 37° C. water bath, followed by a 10 min incubation at 37° C. and 5% CO2. […] The 4-4 cells receive the IBMX to a final concentration of 500 μM IBMX. […]

[3] = test system: endogenous transmembrane adenylyl cyclases; assay: in vivo cAMP accumulation assay, 293T cells + IBMX and Forskolin; assay type: cell-based, human; settings: 293T + FSK column
Procedure: 293T cells or 4-4 cells (hsACt stably transfected into 293T) were grown in 75 cm2 Tissue Culture Flasks until nearly confluent using DMEM (10% FBS, 1% L-Glutamine, 1% Penicillin/Streptomycin). Cells were released from the flask with 3 ml of trypsin followed by addition of 7 ml of DMEM to neutralize the trypsin. Cells were mixed by pipetting up and down with 10 ml serological pipette. To a 3 ml aliquot of the cell mixture, 6 ml of DMEM (prewarmed to 37° C.) was added followed by thorough mixing by picking up the entire 9 mls using a repeat pipettor, and slowly pipetting out against the wall of container. This was repeated this ten times to ensure the mixture in homogenous. 100 μL of cells were then added to each pre-siliconized 1.7 ml Eppindorf tubes (Costar #3207) followed by a 60 min incubation at 37° C. and 5% CO2. This incubation was performed in 20-tube, round, floating racks (VWR #60986-100), which enable a quick transfer of the samples to a water bath, and the ability to mix several samples simultaneously. Following the incubation, 1 μL of the compound in DMSO was added (or just DMSO for controls). […] Following a 10 min incubation at room temperature, 30 μL of each sample was added to 70 μL of 0.1 N HCl and the cAMP levels were measured using the protocol for the Direct Cyclic AMP Kit (Assay Designs, Inc. # 901-066). […]

[4] = target: T1, human sAC; assay: in vitro adenylyl cyclase assay with purified human sAC protein; assay type: biochemical; settings: 100 μM of compound; calcium and bicarbonate stimulated; activation instead of inhibition
Procedure: Purified human sAC protein was used in an in vitro adenylyl cyclase assay. Purification of the protein is described in detail in Litvin et al. 2003. […] This paper also describes the general conditions for a sAC cyclase assay. The specific conditions for the in vitro assay are as follows.
An aliquot of the master mixture was added to the purified human sAC. The assay mixture also included the indicated concentration of KH compound, or an equivalent volume of vehicle (i.e., DMSO) as control. The reaction was started by adding 5 mM ATP (total assay volume=100 μL). […] Stimulated assay conditions involve adding 40 mM bicarbonate and 5 mM CaCl2 to the above master mixture.
Cyclic AMP levels were measured in each sample using the Correlate-EIA Direct Cyclic AMP assay kit from Assay Designs as per manufacturers instructions.

[5] = test system: Cryptococcus; assay: morphological transition essential for pathogenesis, Cryptococcus; assay type: cell-based
[6] = test system: Candida; assay: morphological transition essential for pathogenesis, Candida; assay type: cell-based

Compound: O=C(CSc1nc2ccccc2[nH]1)N/N=C/c1ccccn1 [KH7.14]
- effect on adenylyl cyclase activity in whole cell lysate [1]: no effect

Compound: COc1cc(/C=N/NC(=O)CSc2nc3ccccc3[nH]2)ccc1O [KH7.15]
- effect on adenylyl cyclase activity in whole cell lysate [1]: no effect

Compound: C/C(=N\NC(=O)CSc1nc2ccccc2[nH]1)c1ccccc1 [KH7.108]
- remark on cellular toxicity, 4-4 cells [2]: may be cellular toxicity
- remark on cellular toxicity, 293T cells [3]: may be cellular toxicity

- Activation, printed in column % Inhibition (100 μM), stimulated human sAC [4]: Activation @ 100
Compound: Cc1ccc(Cn2c(SCC(=O)N/N=C/c3ccncc3)nc3ccccc32)cc1 [KH7.142]

Compound: CC(Sc1nc2ccccc2[nH]1)C(=O)N/N=C/c1cc(Br)ccc1O (centres unmarked) [KH7]
- morphological transition essential for pathogenesis [5]: blocked
- stimulation of AC activity in the whole cell lysate ([1]; 100 μM): 1.5-2 fold
- morphological transition essential for pathogenesis [6]: blocked
